According to PubChem BioAssay (NCI):
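A five-concentration, 48-hour dose response in 96-well plates underlies each endpoint, interpolated linearly between surrounding concentrations. At the GI50, growth is halved. The concentration for full growth arrest is given as TGI.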 Where a SMILES comes first, the peptide text is derived from it. [ ]: non-standard residue; d: D form.

How the values were obtained:
Test in all cases: growth of human tumour cells (NCI), 48 h
CCRF-CEM leukemia = tested on: CCRF-CEM leukemia
COLO 205 colon = tested on: COLO 205 colon
HL-60(TB) leukemia = tested on: HL-60(TB) leukemia
NCI-H460 lung = tested on: NCI-H460 lung
OVCAR-5 ovarian = tested on: OVCAR-5 ovarian
PC-3 prostate = tested on: PC-3 prostate
RPMI-8226 leukemia = tested on: RPMI-8226 leukemia
SF-295 CNS = tested on: SF-295 CNS
UO-31 renal = tested on: UO-31 renal
SNB-75 CNS = tested on: SNB-75 CNS

Row | SMILES | GI50 (CCRF-CEM leukemia) | TGI (CCRF-CEM leukemia) | GI50 (COLO 205 colon) | TGI (COLO 205 colon) | GI50 (HL-60(TB) leukemia) | TGI (HL-60(TB) leukemia) | GI50 (NCI-H460 lung) | TGI (NCI-H460 lung) | GI50 (OVCAR-5 ovarian) | TGI (OVCAR-5 ovarian) | GI50 (PC-3 prostate) | TGI (PC-3 prostate) | GI50 (RPMI-8226 leukemia) | TGI (RPMI-8226 leukemia) | GI50 (SF-295 CNS) | TGI (SF-295 CNS) | GI50 (UO-31 renal) | TGI (UO-31 renal) | GI50 (SNB-75 CNS) | TGI (SNB-75 CNS)
1 | COC(=O)[C@@H](C)C[C@H](Cc1ccccc1)NC(=O)c1csc([C@@H](C[C@H](C(C)C)N(C)C(=O)[C@@H](NC(=O)[C@H]2CCCCN2C)C(C(F)(F)F)C(F)(F)F)OC(C)=O)n1 | 0.0539 µM | 9.05 µM | 0.0658 µM | 0.556 µM | 0.0134 µM | 0.115 µM | 0.0576 µM | > 16.7 µM | 0.0643 µM | > 16.7 µM | 0.0452 µM | 3.87 µM | 0.059 µM | 3.22 µM | 0.0368 µM | > 16.7 µM | 0.224 µM | > 16.7 µM |  | 
2 | O=C(/C=C/c1ccc(Cl)cc1Cl)c1ccc(Cl)cc1Cl | 9.14 µM | 32.8 µM | 20.8 µM | > 65.4 µM | 18.3 µM | 43.9 µM | 42.1 µM | > 100 µM | 21.7 µM | 49.1 µM | 24.4 µM | 64.3 µM | 4.22 µM | 17.8 µM | 18.7 µM | 47.7 µM | 15 µM | > 44.8 µM | 40.5 µM | > 100 µM
3 | N=C1C=C(N)C(=O)c2ccccc21 | 0.308 µM | > 100 µM | 0.267 µM | 0.664 µM | 0.207 µM | 0.606 µM | 1.81 µM | 4.01 µM | 0.184 µM | 0.373 µM | 0.281 µM | 1.34 µM | 0.241 µM | 0.669 µM | 0.639 µM | 1.53 µM | 0.153 µM | 0.32 µM | 0.151 µM | 0.293 µM
4 | CN(C)Cc1cc(C(C)(C)C)cc(CN(C)C)c1O |  | > 100 µM |  | > 100 µM |  |  |  | > 100 µM |  | > 100 µM |  | > 100 µM |  | > 100 µM |  | > 100 µM |  | 51.6 µM |  | > 100 µM
5 | CS(=O)(=O)CCNCc1ccoc1-c1ccc2ncnc(Nc3ccc(OCc4ccccc4)cc3)c2c1 | 17.7 µM | > 25 µM | 24.8 µM | > 25 µM | 24.4 µM | > 25 µM | 11.4 µM | > 25 µM | > 25 µM | > 25 µM | > 25 µM | > 25 µM | > 25 µM | > 25 µM | > 25 µM | > 25 µM | 2.26 µM | > 25 µM | > 7.41 µM | > 25 µM
6 | CC(=O)/C(=C/N1CCN(C(=O)c2ccco2)C1=S)C(=O)c1ccccc1 |  |  | 16.5 µM | 45.1 µM | 8.19 µM | 19.3 µM | 7.04 µM | 22.9 µM |  |  | 17.1 µM | > 50 µM | 3.79 µM | 18.2 µM | 19.3 µM | > 50 µM | 8.8 µM | 18.1 µM | 10.9 µM | 35.9 µM
7 | N#Cc1cc2c(cc1Cl)SC(=Nc1ccccc1)N(S(=O)(=O)c1ccc(Br)s1)S2(=O)=O | 21.8 µM | 45 µM | 49.1 µM | > 100 µM |  |  | 23.1 µM | 53 µM | 19.7 µM | 39.2 µM | 17.8 µM | 37.3 µM | 23.6 µM | 67.6 µM | 30.4 µM | 89.5 µM | 15.1 µM | 36.4 µM | 24 µM | 51.7 µM
8 | CC(=O)OC1=C(CC(C)(C)C)C(=O)c2ccccc2C1=O |  | 55.6 µM |  | 72.5 µM |  | 44.5 µM |  | 79.3 µM |  |  |  | > 100 µM |  | 39.1 µM |  | 70.4 µM |  | > 100 µM |  | > 100 µM
9 | CCSc1nc(N)c2cnn(CC)c2n1 | 3.58 µM | 10.8 µM | 18.9 µM | > 100 µM | 2.33 µM | 32.5 µM | 23.9 µM | 78 µM | 27.1 µM | > 100 µM | 4.34 µM | 14.8 µM | 2.38 µM | 6.44 µM | 8.02 µM | > 100 µM | 7.24 µM | > 100 µM |  | 
10 | CSCC[C@H](NC(=O)[C@@H](N)CC(N)=O)C(=O)N[C@@H](Cc1c[nH]c2ccccc12)C(=O)N[C@@H](CCC(N)=O)C(=O)N[C@@H](CCC(=O)O)C(=O)N[C@H](C(=O)NCC(=O)N[C@@H](CCCCN)C(=O)N[C@H](C)C(=O)O)C(C)C (H-NMWQEVGK[dA]-OH) |  | > 100 µM |  | > 100 µM |  | > 100 µM |  | > 100 µM |  | > 100 µM |  | > 100 µM |  | > 100 µM |  | > 100 µM |  |  |  | > 100 µM
11 | COc1ccc(/C=C2/CSC/C(=C/c3ccc(OC)c(OC)c3)C2=O)cc1OC |  |  |  | 6.28 µM |  | > 100 µM |  | 7.09 µM |  | 12.7 µM |  | 11.7 µM |  |  |  | 16.3 µM |  | 10.6 µM |  | > 100 µM
12 | CCOC(=O)CN1C(=O)C(=O)N(c2ccc(OC)c3ccccc23)C1=O |  | > 100 µM |  | > 100 µM |  | > 100 µM |  |  |  | > 100 µM |  | > 100 µM |  | > 100 µM |  | > 100 µM |  | > 100 µM |  | > 100 µM
13 | Cc1cn2cc(-c3ccc4c(c3)CC(=O)N4)nc2s1 | > 100 µM | > 100 µM | > 100 µM | > 100 µM | > 100 µM | > 100 µM |  |  | > 100 µM | > 100 µM | > 100 µM | > 100 µM | 35.9 µM | > 100 µM | > 100 µM | > 100 µM | > 100 µM | > 100 µM | > 100 µM | > 100 µM
14 | C=C(CN1CCN(c2ccc(F)c(Cl)c2)CC1)c1ccc(C(=O)Nc2ccccc2N)cc1 |  |  | > 100 µM | > 100 µM | 1.64 µM | 4.31 µM | 5.08 µM | > 100 µM | 15.1 µM | > 100 µM | 2.34 µM | 9.23 µM | 1.46 µM | 5.1 µM | 6.95 µM | > 100 µM | 2.28 µM | 12.1 µM | > 100 µM | > 100 µM
15 | C[C@H]1CC[C@@H]2[C@@H](C)[C@H]3[C@H](C[C@H]4[C@@H]5CC=C6C[C@@H](O)CC[C@]6(C)[C@H]5CC[C@]34C)N2C1 |  | > 100 µM |  | 39.2 µM |  | 54 µM |  | > 100 µM |  | > 100 µM |  | > 100 µM |  | > 100 µM |  | > 100 µM |  | > 100 µM |  | 
